Experimental data as given in patent US9296776B2, “Substituted nucleoside derivatives with antiviral and antimicrobial properties” (Eastern Virginia Medical School, priority 2007, dated 2016).
Converted amounts (≈) assume the structure as drawn. Like-named read-outs stand apart in the source and are kept apart here.

Assays:
[1] = test system: HIV-1 BaL (cell-free virus); experiment: Single-round infection assay, cell-free virus BaL; format: cell-based; conditions: for EC50 Cell-Free Virus BaL: Table 4
[2] = test system: HIV-1 IIIB (cell-free virus); experiment: microbe, parasite or virus in culture; format: cell-based; conditions: for EC50 Cell-Free Virus IIIB: Table 4
[3] = test system: Cell-associated HIV-1, SupT1 (IIIB); experiment: Single-round infection assay, cell-associated virus SupT1 (IIIB); format: cell-based; conditions: for EC50 Cell-Associated Virus SupT1-IIIB: Table 4
[4] = test system: HIV-1 clinical isolate R5 = 92TH014; experiment: Antiviral activity against HIV-1 clinical isolate R5, p24 level (ELISA); format: cell-based; conditions: Table 5, 6 h incubation then 6 days
[5] = test system: Multidrug resistant virus 7324-1; experiment: Antiviral activity against multidrug resistant HIV-1 clinical isolate, p24 level (ELISA); format: cell-based; conditions: Table 5, MDR = 7324-1, 6 h incubation then 6 days
CCRF-CEM cell line = format: cell-based, human
Protocol: Cells were incubated with 10 μM of DMSO, FAM, KPH-1.5 and KPH-1.6 for 1 h and then imaged using a light microscope (ZEISS Axioplan 2) equipped with transmitted light microscopy with a differential-interference contrast method and an Achroplan 40× objective. […] The results further confirm the higher cellular uptake of KPH-1.6, a fatty acyl derivative of FLT, in comparison to KPH-1.5 and FAM alone. Similar results were also observed with fluorescein-substituted derivative of 3TC.

[6] = Cytotoxicity (Tables 4, 6, 8)
[7] = Table 8, 2 h incubation, wash, 48 h culture
[8] = Table 8, 2 h incubation, wash, 48 h culture, read-out: EC50 Cell-free HIV-1 (IIIB)

Compound: Cc1ccc(C(=O)Nc2ccc(S(=O)(=O)O)c3cc(S(=O)(=O)O)cc(S(=O)(=O)O)c23)cc1NC(=O)c1cccc(NC(=O)Nc2cccc(C(=O)Nc3cc(C(=O)Nc4ccc(S(=O)(=O)O)c5cc(S(=O)(=O)O)cc(S(=O)(=O)O)c45)ccc3C)c2)c1 [Suramin, reference compound]
- CC50 (in vitro): > 100 µg/mL
- EC50 ([1]; Human immunodeficiency virus 1, BAL, Table 6): 1 µg/mL (≈ 0.771 µM)
- EC50 ([2]; Human immunodeficiency virus 1, IIIB, read-out: EC50 Cell-Free Virus IIIB): 49.1 µg/mL

Compound: Sodium Cellulose Sulfate-Acetate-AZT (1.73%) [CS-Ac-AZT]
- EC50 Cell-Associated Virus SupT1-IIIB [3]: 5.6 µg/mL
- IC50 [4]: 3.52 µg/mL
- EC50 Cell-Free Virus BaL [1]: 8.1 µg/mL
- IC50 [5]: 4.22 µg/mL
- EC50 Cell-Free Virus IIIB [2]: 2.5 µg/mL
- potency against cell-free virus relative to AZT, in moles ([2]; based on CS ~2×10^6 Daltons): 5 orders of magnitude

Compound: 3′-fluoro-2′,3′-dideoxy-5′-O-(12-(N-5(6)carboxylfluoresceinaminododecanoyl)thymidine
- cell fluorescence by microscopy (CCRF-CEM cell line): showed fluorescence
- IC50 Cell-Free Virus IIIB ([2]; Table 1, 2 h incubation, wash, 48 h culture): 4.3 µg/mL

Compound: Nc1ccn([C@@H]2CS[C@H](CO)O2)c(=O)n1 [2′,3′-dideoxy-3′-thiacytidine, reference compound]
- CC50 [6]: > 100 µg/mL
- IC50 ([3]; Human immunodeficiency virus 1, IIIB, SUP-T1, read-out: IC50 Cell-Associated Virus SupT1 (IIIB)): 18.4 µg/mL (≈ 80.3 µM)
- IC50 ([1]; Human immunodeficiency virus 1, BAL, read-out: IC50 Cell-Free Virus BaL): 2.6 µg/mL (≈ 11.3 µM)
- IC50 ([2]; Human immunodeficiency virus 1, IIIB, read-out: IC50 Cell-Free Virus IIIB): 7.5 µg/mL (≈ 32.7 µM)

Compound: CCCCCCCCCCCCCC(=O)OCC(NC(C)=O)C(=O)NCCC(=O)NC(CCC(=O)OC[C@H]1O[C@@H](n2cc(C)c(=O)[nH]c2=O)C[C@@H]1N=[N+]=[N-])C(=O)NCC(=O)O (stereo partly shown) [KPH-95, Myristoylserine-AZT(glutamyl)glycine]
- CC50 [6]: > 100 µg/mL
- EC50 Cell-free HIV-1 (IIIB) [2, 7]: 54.5 µg/mL (≈ 63.1 µM)
- EC50 [2, 8]: 63.1 µM

Compound: 5(6)-carboxyfluorescein [FAM, reference compound]
- cell fluorescence by microscopy (CCRF-CEM cell line): no significant fluorescence

Compound: Sodium Cellulose Sulfate-Acetate-FLT (1.45%) [CS-Ac-FLT]
- EC50 Cell-Associated Virus SupT1-IIIB [3]: 5.8 µg/mL
- IC50 [4]: 2.67 µg/mL
- EC50 Cell-Free Virus BaL [1]: 1.5 µg/mL
- IC50 [5]: 0.50 µg/mL
- EC50 Cell-Free Virus IIIB [2]: 2.3 µg/mL

Compound: CCCCCCCCCCCCCC(=O)OCC(NC(C)=O)C(=O)NCCC(=O)NC(CCC(=O)OC[C@H]1O[C@@H](n2cc(C)c(=O)[nH]c2=O)C[C@@H]1F)C(=O)NCC(=O)O (stereo partly shown) [KPH-94, Myristoylserine-FLT(glutamyl)glycine]
- CC50 [6]: > 100 µg/mL
- EC50 Cell-free HIV-1 (IIIB) [2, 7]: 9.3 µg/mL (≈ 11.1 µM)
- EC50 [2, 8]: 11.1 µM

Compound: CCCCCCCCCCCCCC(=O)NCCCC[C@H](NC(=O)CCNC(=O)[C@H](CCC(=O)OC[C@H]1O[C@@H](n2cc(C)c(=O)[nH]c2=O)C[C@@H]1F)NC(=O)CCCCCCCCCCCCC)C(=O)O [KPH-92, FLT(myristoylglutamyl)-mysritoyllysine]
- CC50 [6]: > 100 µg/mL

Compound: CCCCCCCCCCCCCC(=O)NCCCCC(NC(=O)CCNC(=O)C(CCC(=O)OC[C@H]1O[C@@H](n2cc(C)c(=O)[nH]c2=O)C[C@@H]1F)NC(C)=O)C(=O)O (stereo partly shown) [KPH-91, FLT(Glutamyl)-myrsitoyllysine]
- CC50 [6]: > 100 µg/mL
- EC50 Cell-free HIV-1 (IIIB) [2, 7]: 8.7 µg/mL (≈ 10.5 µM)
- EC50 [2, 8]: 10.5 µM
